Where two headings read alike, the source gives them in different places.
Assays:
rats [1] = details: oral, ref Domingo et al. (1984), cited from earlier work
[2] = Bioelution in simulated gastric fluid; details: for Bioelution of Co in gastric fluid (% release), 2 h / Bioelution of Co in gastric fluid / cobalt release (µg Co/g sample), 2 h: simulated gastric fluid pH 1.5, 2 h, 37°C
[3] = Bioelution in simulated intestinal fluid; details: for Bioelution of Co in intestinal fluid (% release) / Bioelution of Co in intestinal fluid / cobalt release (µg Co/g sample): simulated intestinal fluid pH 7.4, 24 h
rats [4] = assay: Acute oral toxicity testing; assay type: in vivo, rat
[5] = Plasma toxicokinetic study; assay type: in vivo, rat; details: for C max / K el / t 1/2 / Bioavailability (relative): 300 mg test item/kg PO; for Bioavailability (relative): vs CoCl2 IV; for Bioavailability calculated from AUC as % of CoCl2 IV AUC, average of m + f: relative bioavailability: oral, average of males and females
Crl:CD(SD) rats = assay: Combined RDT study with reproduction/developmental toxicity screening test; assay type: in vivo, rat; details: oral gavage
[6] = listed as Co Sulfate Heptahydrate

| Compound | Bioelution of Co in gastric fluid (% release), 2 h [2] | Bioelution of Co in intestinal fluid (% release) [3] | Acute LD50 (mg Co/kg bw) (rats [4]; OECD 401 or 425) | C max ([5]; females) | K el ([5]; females) | t 1/2 ([5]; females) | Bioavailability (relative) ([5]; females) | C max ([5]; males) | K el ([5]; males) | t 1/2 ([5]; males) | Bioavailability (relative) ([5]; males) | Bioavailability calculated from AUC as % of CoCl2 IV AUC, average of m + f: relative bioavailability ([5]; rats) | other results |
| --- | --- | --- | --- | --- | --- | --- | --- | --- | --- | --- | --- | --- | --- |
| O.O.O.O.O.O.O.O=S(=O)([O-])[O-].[Co+2] [CoSO4, Cobalt sulfate heptahydrate] | 99.7 % release | 64 (24 h) % release |  |  |  |  |  |  |  |  |  |  | Acute LD50 (mg Co/kg bw) (rats [1]): 65 mg Co/kg bw; Acute LD50 (mg substance/kg bw) (rats [1]): below 1000 mg substance/kg bw; Acute LD50 (mg substance/kg bw) (rats [1]; [6]): 310 [Domingo et al. (1984)] mg substance/kg bw; Bioelution of Co in intestinal fluid / cobalt release (µg Co/g sample) [3, 6]: 139 000 (24 h) µg Co/g sample |
| Cobalt sulfide [CoS] | 0.58 % release | 0.33 (24 h) % release | > 7124 mg Co/kg bw | 2.01 ng/mL | 0.0464 h⁻¹ | 14.9 h | 0.09 (relative) % | 2.01 ng/mL | 0.0413 h⁻¹ | 16.8 h | 0.08 (relative) % | Relative bioavailability 0.08% | Acute LD50 (mg substance/kg bw) (rats [4]; OECD 401 or 425): exceeding 11 000 mg substance/kg bw; Acute LD50 (mg substance/kg bw) (rats [4]; OECD 401 or 425, listed as Co Sulfide): > 11 000 mg substance/kg bw; oral bioavailability ([5]; single oral bolus, rats, males and females not distinguished): below 0.1%; premature deaths (Crl:CD(SD) rats; all doses): None of the exposed animals died prematurely; NOAEL (F0 generation) (Crl:CD(SD) rats; rats): 648 mg Co/kg bw/day; NOAEL (F1 generation) (Crl:CD(SD) rats; rats): > 648 mg Co/kg bw/day; NOAEL (reproductive toxicity) (Crl:CD(SD) rats; rats): > 648 mg Co/kg bw/day; solubility in gastric fluid ([2]; simulated gastric fluid pH 1.5): poorly soluble; Bioelution of Co in gastric fluid / cobalt release (µg Co/g sample), 2 h ([2]; listed as Co Sulfide): 3820 µg Co/g sample; solubility in intestinal fluid ([3]; simulated intestinal fluid pH 7.4): poorly soluble; Bioelution of Co in intestinal fluid / cobalt release (µg Co/g sample) ([3]; listed as Co Sulfide): 2180 (24 h) µg Co/g sample |
| [O]=[Co][OH] [CoOOH, Cobalt oxyhydroxide] | 0.85 % release | 0.06 (24 h) % release |  |  |  |  |  |  |  |  |  |  | Bioelution of Co in gastric fluid / cobalt release (µg Co/g sample), 2 h ([2]; listed as Co Oxide Hydroxide): 4460 µg Co/g sample; Bioelution of Co in intestinal fluid / cobalt release (µg Co/g sample) ([3]; listed as Co Oxide Hydroxide): 370 (24 h) µg Co/g sample |
| [Li+].[O]=[Co][O-] [CoLiO2, Cobalt lithium oxide] | 5.9 % release | 0.02 (24 h) % release | > 3011 mg Co/kg bw | 2.88 ng/mL | 0.0568 h⁻¹ | 12.20 h | 0.25 (relative) % | 3.45 ng/mL | 0.0535 h⁻¹ | 13.0 h | 0.30 (relative) % | Relative bioavailability 0.28% | Acute LD50 (mg substance/kg bw) (rats [4]; OECD 401 or 425, listed as Co Lithium Dioxide): > 5000 mg substance/kg bw; Bioavailability (relative) ([5]; females, listed as Co lithium dioxide): 0.25%; Bioavailability (relative) ([5]; males, listed as Co lithium dioxide): 0.3%; Bioelution of Co in intestinal fluid / cobalt release (µg Co/g sample) ([3]; listed as Co Lithium Dioxide): 134 (24 h) µg Co/g sample |

Reference: article PMC7098370 (Toxicological Sciences, 2020)
